We go through 29 molecules from patent US6605634B2 (Amgen, Inc., priority 1996, dated 2003).

This assay concerns production of tumor necrosis factor (TNF) by monocytes activated with bacterial lipopolysaccharide (LPS). In words: Lipopolysaccharide-activated Monocyte TNF Production Assay. As to conditions: Homo sapiens, TNF in culture supernatants by ELISA, read-out: IC50 (concentration of test compounds causing a 50% reduction in TNF production). It counts as cell-based. How it is done: Lipopolysaccharide-activated Monocyte TNF Production Assay
Test compounds were evaluated in vitro for the ability to inhibit the production of tumor necrosis factor (TNF) by monocytes activated with bacterial lipopolysaccharide (LPS). Fresh residual source leukocytes (a byproduct of plateletpheresis) were obtained from the local blood bank and peripheral blood mononuclear cells (PBMCs) were isolated by density gradient centrifugation on Ficol-Paque Plus (Pharmacia). PBMCs were suspended at 2×10^6/ml in DMEM supplemented to contain 2% FCS (10 mM), 0.3 mg/ml glutamate, 100 U/ml penicillin G and […] streptomycin sulfate (complete media). Cells were plated into Falcon flatbottom 96 well culture plates (200 μl/well) and cultured overnight at 37° C. and 6% CO2. Nonadherent cells were removed by washing with 200 μl/well of fresh medium. Wells containing adherent cells (˜70% monocytes) were replenished with 100 μl of fresh medium.
Preparation of Test Compound Stock Solutions
Test compounds were dissolved in […]. Compound stock solutions were prepared to an initial concentration of […]. Stocks were diluted initially to 20-200 μM in complete media. Nine two-fold serial dilutions of each compound were then prepared in complete medium.
Treatment of Cells with Test Compounds and Activation of TNF Production with Lipopolysaccharide
One hundred microliters of each test compound dilution were added to microtiter wells containing adherent monocytes and 100 μl complete medium. Monocytes were cultured with test compounds for 60 min at which time 25 μl of complete medium containing 30 ng/ml lipopolysaccharide from E. coli K532 were added to each well. Cells were cultured an additional 4 hrs. Culture supernatants were then removed and TNF present in the supernatants was quantified using an ELISA.
Flat bottom 96 well Coming High Binding ELISA plates were coated overnight (4° C.) with 150 μL/well of 3 μg/ml murine anti-human TNFa MAb (R&D Systems #MAB210). Wells were then blocked 1 h at room temperature with 200 μL/well of CaCl2-free ELISA buffer supplemented to contain 20 mg/ml BSA (standard ELISA buffer: […], 150 mM NaCl, 2 mM CaCl2, 0.15 mM thimerosal, pH 7.4). Plates were washed and replenished with 100 μl of test supernatants (diluted 1:3) or standards. Standards consisted of eleven 1.5-fold serial dilutions from a stock of 1 ng/ml recombinant human TNF (R&D Systems). Plates were incubated at room temperature for 1 h on orbital shaker (300 rpm), washed and replenished with 100 μl/well of 0.5 jig/ml goat anti-human TNFa (R&D systems #AB-210-NA) biotinylated at a 4:1 ratio. Plates were incubate for 40 min, washed and replenished with 100 μl/well of alkaline phosphatase-conjugated streptavidin (Jackson ImmunoResearch #016-050-084) at 0.02 μg/ml. Plates were incubated 30 min, washed and replenished with 200 μl well of 1 mg/ml of p-nitrophenyl phosphate. After 30 min, plates were read at 405 nm on a Vmax plate reader.
Standard curve data were fit to a second order polynomial and unknown TNF-a concentrations determined from their OD by solving this equation for concentration. TNF concentrations were then plotted Vs test compound concentration using a second order polynomial. This equation was then used to calculate the concentration of test compounds causing a 50% reduction in TNF production.

For the molecule `NC(Cc1ccccc1)C(=O)Nc1ccc2c(-c3ccncc3)c(-c3ccc(F)cc3)[nH]c2n1` (racemic) [Compound 87, 6-(3′-phenyl-1′-oxo-2′-D,L-aminopropylamino)-3-(4-pyridyl)-2-(4-fluorophenyl)-7-aza-indole], the IC50 was below 20 µM. For `CC(CNc1ccc2c(-c3ccncc3)c(-c3ccc(F)cc3)[nH]c2n1)c1ccccc1` (racemic) [Compound 147, 6-(2′(R,S)-phenylpropylamino)-3-(4-pyridyl)-2-(4-fluorophenyl)-7-aza-indole], the IC50 is below 20 µM.

In the case of `CCCCC(CC)CNc1ccc2c(-c3ccncc3)c(-c3ccc(F)cc3)[nH]c2n1` (racemic) [Compound 148, 6-(2′(R,S)-ethylhexylamino)-3-(4-pyridyl)-2-(4-fluorophenyl)-7-aza-indole], the IC50 was below 20 µM. With `Fc1ccc(-c2[nH]c3ccccc3c2-c2ccncc2)cc1` [Compound 3, 3-(4-pyridyl)-2-(4-fluorophenyl)indole] the figure was below 20 µM; with `Nc1ccc2c(-c3ccncc3)c(-c3ccc(F)cc3)[nH]c2n1` [Compound 17, 6-Amino-3-(4-pyridyl)-2-(4-fluorophenyl)-7-aza-indole], below 1 µM. Under `Nc1ccc2c(-c3ccc(F)cc3)c(-c3ccncc3)[nH]c2n1` [Compound 18, 6-Amino-3-(4-fluorophenyl)-2-(4-pyridyl)-7-aza-indole] stands below 20 µM; under `CC(C)(C)OC(=O)NCCCC(=O)Nc1ccc2c(-c3ccncc3)c(-c3ccc(F)cc3)[nH]c2n1` [Compound 21, 6-(4′-t-butoxycarbonylamino-1′-oxo-butylamino)-3-(4-pyridyl)-2-(4-fluorophenyl)-7-aza-indole], below 20 µM.

On to `NCCCC(=O)Nc1ccc2c(-c3ccncc3)c(-c3ccc(F)cc3)[nH]c2n1` [Compound 22, 6-(4′-amino-1′-oxo-butylamino)-3-(4-pyridyl)-2-(4-fluorophenyl)-7-aza-indole], for which the IC50 is below 20 µM. With `Nc1nc2[nH]c(-c3ccc(F)cc3)c(-c3ccncc3)c2cc1Br` [Compound 27, 6-Amino-5-bromo-3-(4-pyridyl)-2-(4-fluorophenyl)-7-aza-indole] the figure was below 20 µM; with `Nc1nc2[nH]c(-c3ccc(F)cc3)c(-c3ccncc3)c2cc1F` [Compound 28, 6-Amino-5-fluoro-3-(4-pyridyl)-2-(4-fluorophenyl)-7-aza-indole], below 20 µM; with `CC(C)(C)OC(=O)NCC(=O)Nc1ccc2c(-c3ccncc3)c(-c3ccc(F)cc3)[nH]c2n1` [Compound 29, 6-(2′-t-butoxycarbonylamino-1′-oxo-ethylamino)-3-(4-pyridyl)-2-(4-fluorophenyl)-7-aza-indole], below 20 µM. For `NC(=O)NCCC[C@H](N)C(=O)Nc1ccc2c(-c3ccncc3)c(-c3ccc(F)cc3)[nH]c2n1` [Compound 65, 6-(5′-ureido-1′-oxo-2′-aminopentylamino)-3-(4-pyridyl)-2-(4-fluorophenyl)-7-aza-indole], the IC50 is below 20 µM. `CC(C)(C)OC(=O)NCCCC[C@H](NC(=O)OC(C)(C)C)C(=O)Nc1ccc2c(-c3ccncc3)c(-c3ccc(F)cc3)[nH]c2n1` [Compound 66, 6-(6′-t-butoxycarbonylamino-1′-oxo-2′-t-butoxycarbonylaminohexylamino)-3-(4-pyridyl)-2-(4-fluorophenyl)-7-aza-indole]: the IC50 is below 20 µM. With `NCCCC[C@H](N)C(=O)Nc1ccc2c(-c3ccncc3)c(-c3ccc(F)cc3)[nH]c2n1` [Compound 67, 6-(6′-amino-1′-oxo-2′-aminohexylamino)-3-(4-pyridyl)-2-(4-fluorophenyl)-7-aza-indole] the figure was below 20 µM. With `CC(C)(C)OC(=O)NCCC[C@H](NC(=O)OC(C)(C)C)C(=O)Nc1ccc2c(-c3ccncc3)c(-c3ccc(F)cc3)[nH]c2n1` [Compound 68, 6-(5′-t-butoxycarbonylamino-1′-oxo-2′-t-butoxycarbonylaminopentylamino)-3-(4-pyridyl)-2-(4-fluorophenyl)-7-aza-indole], the IC50 was below 20 µM.

Take `NCCC[C@H](N)C(=O)Nc1ccc2c(-c3ccncc3)c(-c3ccc(F)cc3)[nH]c2n1` [Compound 69, 6-(5′-amino-1′-oxo-2′-aminopentylamino)-3-(4-pyridyl)-2-(4-fluorophenyl)-7-aza-indole]: the IC50 was below 20 µM. Under `N[C@@H](Cc1ccc(I)cc1)C(=O)Nc1ccc2c(-c3ccncc3)c(-c3ccc(F)cc3)[nH]c2n1` [Compound 71, 6-(3′-(4-iodophenyl)-1′-oxo-2′-aminopropylamino)-3-(4-pyridyl)-2-(4-fluorophenyl)-7-aza-indole] stands below 1 µM. For `CC(C)[C@H](N)C(=O)Nc1ccc2c(-c3ccncc3)c(-c3ccc(F)cc3)[nH]c2n1` [Compound 73, 6-(3′-Methyl-1′-oxo-2′-aminobutylamino)-3-(4-pyridyl)-2-(4-fluorophenyl)-7-aza-indole], the IC50 is below 20 µM. `CC(C)(C)C[C@H](N)C(=O)Nc1ccc2c(-c3ccncc3)c(-c3ccc(F)cc3)[nH]c2n1` [Compound 75, 6-(4′,4′-Dimethyl-1′-oxo-2′-aminopentylamino)-3-(4-pyridyl)-2-(4-fluorophenyl)-7-aza-indole]: the IC50 is below 20 µM. With `NCCCCC(=O)Nc1ccc2c(-c3ccncc3)c(-c3ccc(F)cc3)[nH]c2n1` [Compound 77, 6-(5′-amino-1′-oxo-pentylamino)-3-(4-pyridyl)-2-(4-fluorophenyl)-7-aza-indole] the figure was below 20 µM.

With `NCCCCCC(=O)Nc1ccc2c(-c3ccncc3)c(-c3ccc(F)cc3)[nH]c2n1` [Compound 79, 6-(6′-amino-1′-oxo-hexylamino)-3-(4-pyridyl)-2-(4-fluorophenyl)-7-aza-indole], the IC50 is below 20 µM.

As to `N[C@@H](CC1CCCCC1)C(=O)Nc1ccc2c(-c3ccncc3)c(-c3ccc(F)cc3)[nH]c2n1` [Compound 81, 6-(3′-cyclohexyl-1′-oxo-2′-aminopropylamino)-3-(4-pyridyl)-2-(4-fluorophenyl)-7-aza-indole], the IC50 is below 20 µM. Regarding `N[C@@H](CCC(=O)O)C(=O)Nc1ccc2c(-c3ccncc3)c(-c3ccc(F)cc3)[nH]c2n1` [Compound 83, 6-(4′-carboxy-1′-oxo-2′-aminobutylamino)-3-(4-pyridyl)-2-(4-fluorophenyl)-7-aza-indole], the IC50 was below 20 µM. Turning to `CC(O)[C@H](N)C(=O)Nc1ccc2c(-c3ccncc3)c(-c3ccc(F)cc3)[nH]c2n1` (some centres unmarked) [Compound 85, 6-(3′-hydroxy-1′-oxo-2′-aminobutylamino)-3-(4-pyridyl)-2-(4-fluorophenyl)-7-aza-indole], the IC50 is below 20 µM. For `N[C@@H](Cc1ccc(O)cc1)C(=O)Nc1ccc2c(-c3ccncc3)c(-c3ccc(F)cc3)[nH]c2n1` [Compound 89, 6-(3′-(4-hydroxyphenyl)-1′-oxo-2′-aminopropylamino)-3-(4-pyridyl)-2-(4-fluorophenyl)-7-aza-indole], the IC50 was below 1 µM.

Regarding `NCCC(=O)Nc1ccc2c(-c3ccncc3)c(-c3ccc(F)cc3)[nH]c2n1` [Compound 91, 6-(3′-amino-1′-oxo-propylamino)-3-(4-pyridyl)-2-(4-fluorophenyl)-7-aza-indole], the IC50 is below 20 µM. With `NCC(=O)Nc1ccc2c(-c3ccncc3)c(-c3ccc(F)cc3)[nH]c2n1` [Compound 92, 6-(2′-amino-1′-oxo-ethylamino)-3-(4-pyridyl)-2-(4-fluorophenyl)-7-aza-indole] the figure was below 1 µM; with `CS(=O)(=O)Nc1ccc2c(-c3ccncc3)c(-c3ccc(F)cc3)[nH]c2n1` [Compound 93, 6-(methylsulfonylamino)-3-(4-pyridyl)-2-(4-fluorophenyl)-7-aza-indole], below 20 µM; with `CC(=O)Nc1ccc2c(-c3ccncc3)c(-c3ccc(F)cc3)[nH]c2n1` [Compound 94, 6-(1′-oxo-ethylamino)-3-(4-pyridyl)-2-(4-fluorophenyl)-7-aza-indole], below 20 µM.
